Data reported in ChEMBL document CHEMBL1909294, “Translating clinical findings into knowledge in drug safety evaluation--drug induced liver injury prediction system (DILIps)” (PLoS Comput Biol, 2011).

Assays:
Hepatotoxicity [1] = test system: Hepatotoxicity;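 as to HepSE bilirubinemia: bilirubinemia hepatic side effect score drawn from the DILIps training data, a prediction system for drug-induced liver injury; call rule not given here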;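 as to HepSE cirrhosis: cirrhosis hepatic side effect score taken from the DILIps (drug-induced liver injury prediction) training set; call rule not given here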;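 as to HepSE elevated liver function tests: hepatic side effect score for raised liver function tests, as recorded in the DILIps training set used for predicting drug-induced liver injury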; as to HepSE hepatic failure: call rule not given here;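 as to HepSE hepatomegaly: hepatic side effect score for hepatomegaly, taken from the training set of the DILIps drug-induced liver injury prediction system; call rule not given here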; as to HepSE liver disease: call rule not given here;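 as to HepSE liver fatty: hepatic side effect score for fatty liver, taken from the DILIps training set for predicting drug-induced liver injury; call rule not given here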
Hepatotoxicity [2] = test system: Hepatotoxicity; remark: listed apart in the source;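 as to HepSE bilirubinemia: bilirubinemia hepatic side effect score drawn from the DILIps training data, a prediction system for drug-induced liver injury; call rule not given here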;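 as to HepSE cirrhosis: cirrhosis hepatic side effect score taken from the DILIps (drug-induced liver injury prediction) training set; call rule not given here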;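 as to HepSE elevated liver function tests: hepatic side effect score for raised liver function tests, as recorded in the DILIps training set used for predicting drug-induced liver injury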; as to HepSE hepatic failure: call rule not given here;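 as to HepSE hepatomegaly: hepatic side effect score for hepatomegaly, taken from the training set of the DILIps drug-induced liver injury prediction system; call rule not given here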; as to HepSE liver disease: call rule not given here;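 as to HepSE liver fatty: hepatic side effect score for fatty liver, taken from the DILIps training set for predicting drug-induced liver injury; call rule not given here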
Hepatotoxicity [3] = test system: Hepatotoxicity; remark: listed apart in the source;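 as to HepSE bilirubinemia: bilirubinemia hepatic side effect score drawn from the DILIps training data, a prediction system for drug-induced liver injury; call rule not given here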;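 as to HepSE cirrhosis: cirrhosis hepatic side effect score taken from the DILIps (drug-induced liver injury prediction) training set; call rule not given here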;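 as to HepSE elevated liver function tests: hepatic side effect score for raised liver function tests, as recorded in the DILIps training set used for predicting drug-induced liver injury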; as to HepSE hepatic failure: call rule not given here;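 as to HepSE hepatomegaly: hepatic side effect score for hepatomegaly, taken from the training set of the DILIps drug-induced liver injury prediction system; call rule not given here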; as to HepSE liver disease: call rule not given here;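 as to HepSE liver fatty: hepatic side effect score for fatty liver, taken from the DILIps training set for predicting drug-induced liver injury; call rule not given here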
Hepatotoxicity [4] = test system: Hepatotoxicity; remark: listed apart in the source;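 as to HepSE bilirubinemia: bilirubinemia hepatic side effect score drawn from the DILIps training data, a prediction system for drug-induced liver injury; call rule not given here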;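 as to HepSE cirrhosis: cirrhosis hepatic side effect score taken from the DILIps (drug-induced liver injury prediction) training set; call rule not given here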;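 as to HepSE elevated liver function tests: hepatic side effect score for raised liver function tests, as recorded in the DILIps training set used for predicting drug-induced liver injury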;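 as to HepSE hepatomegaly: hepatic side effect score for hepatomegaly, taken from the training set of the DILIps drug-induced liver injury prediction system; call rule not given here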; as to HepSE liver disease: call rule not given here;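 as to HepSE liver fatty: hepatic side effect score for fatty liver, taken from the DILIps training set for predicting drug-induced liver injury; call rule not given here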
Hepatotoxicity [5] = test system: Hepatotoxicity; remark: listed apart in the source; as to HepSE liver disease: call rule not given here
Hepatotoxicity [6] = test system: Hepatotoxicity; remark: listed apart in the source; as to HepSE liver disease: call rule not given here
Hepatotoxicity [7] = test system: Hepatotoxicity; remark: listed apart in the source
Hepatotoxicity [8] = test system: Hepatotoxicity; remark: listed apart in the source
Hepatotoxicity [9] = test system: Hepatotoxicity; remark: listed apart in the source
Hepatotoxicity [10] = test system: Hepatotoxicity; remark: listed apart in the source
Hepatotoxicity [11] = test system: Hepatotoxicity; remark: listed apart in the source
Hepatotoxicity [12] = test system: Hepatotoxicity; remark: listed apart in the source
Hepatotoxicity [13] = test system: Hepatotoxicity; remark: listed apart in the source
Hepatotoxicity [14] = test system: Hepatotoxicity; remark: listed apart in the source

Compound | HepSE_bilirubinemia (Hepatotoxicity [1]) | HepSE_liver fatty (Hepatotoxicity [2]) | HepSE_hepatomegaly (Hepatotoxicity [3]) | HepSE_cirrhosis (Hepatotoxicity [4]) | HepSE_hepatitis (Hepatotoxicity [5]) | HepSE_liver disease (Hepatotoxicity [6]) | HepSE_elevated liver function tests (Hepatotoxicity [7]) | HepSE_hepatic failure (Hepatotoxicity [8]) | HepSE_Combined Scores (Hepatotoxicity [9]) | HepSE_jaundice (Hepatotoxicity [10]) | HepSE_cholelithiasis (Hepatotoxicity [11]) | HepSE_hepatic necrosis (Hepatotoxicity [12]) | HepSE_liver function tests abnormal (Hepatotoxicity [13]) | HepSE_cholecystitis (Hepatotoxicity [14]) | further results
CCOc1nc2cccc(C(=O)O)c2n1Cc1ccc(-c2ccccc2-c2nnn[nH]2)cc1 | 0 | 0 | 0 | 0 | 1 | 0 | 0 | 0 | 2 | 0 | 1 | 0 | 0 | 0 | –
CCCc1nc2c(C)cc(-c3nc4ccccc4n3C)cc2n1Cc1ccc(-c2ccccc2C(=O)O)cc1 | 0 | 0 | 0 | 0 | 0 | 1 | 0 | 0 | 1 | 0 | 0 | 0 | 0 | 0 | –
CCCCC(=O)N(Cc1ccc(-c2ccccc2-c2nnn[nH]2)cc1)[C@H](C(=O)O)C(C)C | 0 | 0 | 0 | 0 | 1 | 0 | 0 | 0 | 1 | 0 | 0 | 0 | 0 | 0 | –
FC(F)OC(F)C(F)(F)F (centres undefined) | 0 | 0 | 0 | 0 | 1 | 0 | 0 | 1 | 2 | 0 | 0 | 0 | 0 | 0 | –
CC(=O)N[C@H]1[C@H](OCCCO)OC(C(=O)O)=C[C@@H]1O | 0 | 0 | 0 | 0 | 0 | 0 | 0 | 0 | 0 | 0 | 0 | 0 | 0 | 0 | –
CCCCc1nc(N)[se]c1CCC | 0 | 0 | 0 | 0 | 0 | 0 | 0 | 0 | 0 | 0 | 0 | 0 | 0 | 0 | –
FC(F)OC(F)(F)C(F)Cl (centres undefined) | 0 | 0 | 0 | 0 | 0 | 0 | 0 | 1 | 2 | 0 | 0 | 1 | 0 | 0 | –
COc1ccc(-c2ccc3cc(C(=O)O)ccc3c2)cc1C12CC3CC(CC(C3)C1)C2 | 0 | 0 | 0 | 0 | 1 | 0 | 0 | 0 | 1 | 0 | 0 | 0 | 0 | 0 | –
CNS(=O)(=O)Cc1ccc2[nH]cc(CCN(C)C)c2c1 | 0 | 0 | 0 | 0 | 0 | 0 | 1 | 0 | 2 | 0 | 0 | 0 | 1 | 0 | –
C[C@@H](O)[C@H]1C(=O)N2C(C(=O)O)=C(S[C@@H]3CN[C@H](C(=O)Nc4cccc(C(=O)O)c4)C3)[C@H](C)[C@H]12 | 0 | 0 | 0 | 0 | 0 | 1 | 0 | 0 | 4 | 1 | 1 | 0 | 0 | 1 | –
CC1=C(CC(=O)O)c2cc(F)ccc2/C1=C\c1ccc([S+](C)[O-])cc1 (centres undefined) | 0 | 0 | 0 | 0 | 1 | 0 | 0 | 1 | 4 | 1 | 0 | 0 | 0 | 1 | –
CCCCC[C@](C)(O)/C=C/[C@@H]1[C@@H](C/C=C/CCCC(=O)O)[C@@H](O)C[C@H]1O | 0 | 0 | 0 | 0 | 0 | 0 | 0 | 0 | 0 | 0 | 0 | 0 | 0 | 0 | –
CCCc1nn(C)c2c(=O)[nH]c(-c3cc(S(=O)(=O)N4CCN(C)CC4)ccc3OCC)nc12 | 0 | 0 | 0 | 0 | 0 | 0 | 0 | 0 | 1 | 0 | 0 | 0 | 1 | 0 | –
CCC[C@@]1(CCc2ccccc2)CC(O)=C([C@H](CC)c2cccc(NS(=O)(=O)c3ccc(C(F)(F)F)cn3)c2)C(=O)O1 | 1 | 1 | 0 | 0 | 1 | 0 | 0 | 1 | 6 | 1 | 0 | 0 | 1 | 0 | –
CCOC(=O)[C@H](CCc1ccccc1)N[C@@H](C)C(=O)N1CCC[C@H]1C(=O)O | 0 | 0 | 0 | 0 | 1 | 0 | 0 | 1 | 3 | 1 | 0 | 0 | 0 | 0 | –
Nc1nc(N)c2nc(-c3ccccc3)c(N)nc2n1 | 0 | 0 | 0 | 0 | 0 | 0 | 0 | 0 | 1 | 1 | 0 | 0 | 0 | 0 | –
CN1C(C(=O)Nc2ccccn2)=C(O)c2ccccc2S1(=O)=O [PIROXICAM] | 0 | 0 | 0 | 0 | – | 0 | 0 | 1 | 3 | 1 | 0 | 0 | 0 | 0 | –
Nc1ccc(S(N)(=O)=O)cc1 [SULFANILAMIDE] | – | – | – | – | – | – | – | – | – | – | – | – | – | – | HepSE_bilirubinemia (Hepatotoxicity [1]; Liver): 0; HepSE_liver fatty (Hepatotoxicity [2]; Liver): 0; HepSE_hepatomegaly (Hepatotoxicity [3]; Liver): 0; HepSE_cirrhosis (Hepatotoxicity [4]; Liver): 0; HepSE_hepatitis (Hepatotoxicity [5]; Liver): 0; HepSE_liver disease (Hepatotoxicity [6]; Liver): 0; HepSE_hepatic failure (Hepatotoxicity [8]; Liver): 0; HepSE_Combined Scores (Hepatotoxicity [9]; Liver): 0; HepSE_jaundice (Hepatotoxicity [10]; Liver): 0; HepSE_cholelithiasis (Hepatotoxicity [11]; Liver): 0; HepSE_hepatic necrosis (Hepatotoxicity [12]; Liver): 0; HepSE_cholecystitis (Hepatotoxicity [14]; Liver): 0
